In general, MIC refers to the lowest concentration that inhibits growth of the organism.

Molecules are shown by their SMILES. Converted amounts (≈) assume the structure as drawn.

The values that follow come from article PMC6001238, “Iterative Chemical Engineering of Vancomycin Leads to Novel Vancomycin Analogs With a High in Vitro Therapeutic Index” (Frontiers in Microbiology, 2018).

The test system of assay [1] is VRE39. Nature of the assay: MIC in the absence and presence of 10 µM vancomycin (vanA induction). Format: cell-based, Enterococcus faecalis. As to the method: The minimum inhibitory concentration (MIC) was determined using the broth microdilution method according to the antimicrobial susceptibility testing standards of the clinical and laboratory standards institute ([Clinical and Laboratory Standards Institute [CLSI], 2012]). Ultrapure water and non-inoculated broth were used as controls. In one case, a final concentration of 10 μM vancomycin was included with the vancomycin analog or control antibiotic.

Assay [2] relates to VRE 39. The assay is described as follows: Resistance development, serial exposure to subinhibitory doses, 20 cycles. Format: cell-based, Enterococcus faecalis. The following applies: subinhibitory doses (MIC/2). As to the method: To monitor resistance development upon exposure to subinhibitory doses, the initial MIC of Vanc-39, Vanc-42 and daptomycin was determined against VRE 39. A new MIC assay was prepared using 1,000-fold diluted cells grown at MIC/2 (occasionally MIC/4 if growth in MIC/2 was too limited). This was repeated for 20 cycles and changes in MIC were monitored.

Assay [3] relates to MRSA. The assay is described as follows: Time-kill curves, MRSA at 4x MIC. The following applies: 1-24 h. Format: cell-based, Staphylococcus aureus. As to the method: Time-kill curves were determined based on the CLSI guidelines ([Clinical and Laboratory Standards Institute [CLSI], 1999]). Single colonies grown overnight at 37°C were resuspended in Ca^2+-adjusted (0.05 mg/mL) Mueller Hinton broth up to an optical density (625 nm) of 0.08–00.10 (corresponding to the 0.5 McFarland standard), followed by a 10-fold dilution in the same broth. Subsequently, 0.2 mL inoculum was added to 1.7 mL Ca^2+-adjusted (0.05 mg/mL) Mueller Hinton broth, followed by addition of the antibacterial compound (0.1 mL). The final concentration of the antibacterial compound corresponded to the 4x MIC value for that compound. For the antibiotic-free control, the compound was replaced by an equal volume of ultrapure water. The final inoculum concentration was approximately 10^6 CFU/mL. The cultures were continuously shaken at 37°C. After 1, 2, 4, 6, 8, and 24 h, a 0.1 mL aliquot was removed, serially diluted in cold 0.9% w/v NaCl and plated on BHI (VRE) and LB (MRSA) agar plates. Plates were incubated overnight at 37°C and colonies were counted.

For assay [4], the system named is B. subtilis PSB3. Nature of the assay: MIC, broth microdilution, B. subtilis PSB3. Format: cell-based, Bacillus subtilis. In a few lines: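 Assayed by broth microdilution under CLSI antimicrobial testing rules. One case paired the analog or control drug with vancomycin at a 10 μM final concentration; water and inoculum-free broth were controls.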
Background: In broth dilution the organism is exposed to a series of concentrations in liquid medium.

Assay [5] deals with E. coli XL-1 blue MRF'. Nature of the assay: MIC, broth microdilution, E. coli XL-1 blue MRF'. Format: cell-based, Escherichia coli. In outline: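 Read-out: lowest concentration inhibiting growth in broth microdilution, CLSI method. Water and broth-only wells acted as controls; in one case 10 μM vancomycin (final) was present with the compound.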
Assay [6] deals with lipid II with terminal D-Ala-D-Lac. Details: method as in Arthur and Courvalin, 1993; Walsh et al., 1996. The conditions noted are these: D-Ala-D-Lac versus D-Ala-D-Ala termini ref Arthur and Courvalin, 1993; Walsh et al., 1996; cited from earlier work.

Turning to `CN[C@H](CC(C)C)C(=O)N[C@H]1C(=O)N[C@@H](CC(N)=O)C(=O)N[C@H]2C(=O)N[C@H]3C(=O)N[C@H](C(=O)N[C@H](C(=O)NCC(=O)Nc4ccc5c(c4)Cc4ccccc4-5)c4cc(O)cc(O)c4-c4cc3ccc4O)[C@H](O)c3ccc(c(Cl)c3)Oc3cc2cc(c3O[C@@H]2O[C@H](CO)[C@@H](O)[C@H](O)[C@H]2O[C@H]2C[C@](C)(N)[C@H](O)[C@H](C)O2)Oc2ccc(cc2Cl)[C@H]1O` [Vanc-42], the MIC in assay [1] (VRE39, 0 µM vancomycin) turned out to be 1.56 µM; in assay [1] (VRE39, 10 μM vancomycin added) it was 1.56 µM. Also, in assay [2], the “change in MIC upon serial exposure” value was “oscillated between the original value and a twofold increase”.

`CCCCCCCCCC(=O)N[C@@H](Cc1c[nH]c2ccccc12)C(=O)N[C@H](CC(N)=O)C(=O)N[C@@H](CC(=O)O)C(=O)N[C@@H]1C(=O)NCC(=O)N[C@@H](CCCN)C(=O)N[C@@H](CC(=O)O)C(=O)N[C@H](C)C(=O)N[C@@H](CC(=O)O)C(=O)NCC(=O)N[C@H](CO)C(=O)N[C@@H]([C@H](C)CC(=O)O)C(=O)N[C@@H](CC(=O)c2ccccc2N)C(=O)O[C@@H]1C` [Daptomycin, reference compound]: in assay [3], the time-kill curve character entry is recorded as “complete elimination after 24 h”. The “change in MIC upon serial exposure” value in assay [2] is listed as “eightfold higher concentration”.

On to `CNC(CC(C)C)C(=O)NC1C(=O)NC(CC(N)=O)C(=O)NC2C(=O)NC3C(=O)NC(C(=O)NC(C(=O)NCCCNC(=O)c4ccc5cc(NS(=O)(=O)c6ccc(C(C)C)cc6)ccc5c4)c4cc(O)cc(O)c4-c4cc3ccc4O)C(O)c3ccc(c(Cl)c3)Oc3cc2cc(c3OC2OC(CO)C(O)C(O)C2OC2CC(C)(N)C(O)C(C)O2)Oc2ccc(cc2Cl)C1O` (stereo not drawn) [Vanc-66], for which the MIC in assay [1] (VRE39, 0 µM vancomycin) was found to be 3.13 µM; in assay [1] (VRE39, 10 μM vancomycin added), 3.13 µM.

Regarding `CN[C@H](CC(C)C)C(=O)N[C@H]1C(=O)N[C@@H](CC(N)=O)C(=O)N[C@H]2C(=O)N[C@H]3C(=O)N[C@H](C(=O)N[C@H](C(=O)O)c4cc(O)cc(O)c4-c4cc3ccc4O)[C@H](O)c3ccc(c(Cl)c3)Oc3cc2cc(c3O[C@@H]2O[C@H](CO)[C@@H](O)[C@H](O)[C@H]2O[C@H]2C[C@](C)(N)[C@H](O)[C@H](C)O2)Oc2ccc(cc2Cl)[C@H]1O` [Vancomycin], the MIC in assay [4] (Bacillus subtilis) was 0.39 µM (≈ 0.565 µg/mL); in assay [5] (Escherichia coli), 100 µM (≈ 145 µg/mL); in assay [1] (Enterococcus faecalis, VRE39, 0 µM vancomycin), 800 µM; in assay [1] (Enterococcus faecalis, VRE39, 10 μM vancomycin added), 400 µM. Further, the MICvanc/MICi in assay [4] (ratio of MIC of vancomycin and MIC of analogue) amounted to 1; in assay [5] (E. coli XL-1 blue MRF', ratio of MIC of vancomycin and MIC of analogue) it was 1. The “reduced affinity for vancomycin” value in assay [6] is 1000 fold.

As to `CN(C)c1cc(NC(=O)CNC(C)(C)C)c(O)c2c1C[C@H]1C[C@H]3[C@H](N(C)C)C(O)=C(C(N)=O)C(=O)[C@@]3(O)C(O)=C1C2=O` [Tigecycline, reference compound], the time-kill curve character result in assay [3] is given as “typical bacteriostatic time-kill curve”.

With `CNC(CC(C)C)C(=O)NC1C(=O)NC(CC(N)=O)C(=O)NC2C(=O)NC3C(=O)NC(C(=O)NC(C(=O)NCCCNC(=O)c4cc5ccccc5[nH]4)c4cc(O)cc(O)c4-c4cc3ccc4O)C(O)c3ccc(c(Cl)c3)Oc3cc2cc(c3OC2OC(CO)C(O)C(O)C2OC2CC(C)(N)C(O)C(C)O2)Oc2ccc(cc2Cl)C1O` (stereo not drawn) [Vanc-24], the MIC in assay [1] (VRE39, 0 µM vancomycin) was 3.13 µM; in assay [1] (VRE39, 10 μM vancomycin added) it was 6.25 µM. The time-kill curve character result in assay [3] was “quickest onset of killing”.

As for `CCCCc1ccc(NC(=O)CNC(=O)[C@H]2NC(=O)[C@H]3NC(=O)[C@H](NC(=O)[C@@H]4NC(=O)[C@H](CC(N)=O)NC(=O)[C@H](NC(=O)[C@@H](CC(C)C)NC)[C@H](O)c5ccc(c(Cl)c5)Oc5cc4cc(c5O[C@@H]4O[C@H](CO)[C@@H](O)[C@H](O)[C@H]4O[C@H]4C[C@](C)(N)[C@H](O)[C@H](C)O4)Oc4ccc(cc4Cl)[C@H]3O)c3ccc(O)c(c3)-c3c(O)cc(O)cc32)cc1` [Vanc-39], the MIC in assay [1] (VRE39, 0 µM vancomycin) came out at 1.56 µM; in assay [1] (VRE39, 10 μM vancomycin added), 6.25 µM. Also, the “change in MIC upon serial exposure” value in assay [2] is “oscillated between the original value and a twofold increase”.
